# Results as given in patent publication US20230127442A1, “COMPOSITIONS FOR INCREASING ETHANOL PRODUCTION AND RELATED METHODS” (KEMIN INDUSTRIES, INC., priority 2021, published 2023).
# Experiments:
# [1] = system: yeast; test: Corn mash fermentation with synthetic antioxidants, 24 hours at 33° C. then heat stress at 37° C. to 72 hours, ethanol by HPLC (Example 6); format: cell-based; settings: for increase in ethanol content at 24 hour compared to control: before heat stress
# From the text: (§1) Lutein (FloraGLO®): Lutein crystals were purified from marigolds and suspended in oil. Acerola extract (Fortium® A): Acerola fruit grown from Malpighia emarginata, water extract. Spearmint Extract (Neumentix®): Spearmint leaves grown from Mentha spicata L. (Kemin Industries, Inc. proprietary lines KI-MsEM0042, KI-MsEM0110), water extract. Aqueous Tea Extract (AssuriTEA® Green): Tea leaves grown from Camellia sinensis, water extract. Solvent Extracted Tea (Fortium® GT107): Tea leaves grown from Camellia sinensis and extracted with acetone and ethyl acetate, solvent extract. Rosemary Extract (Fortium® M): Rosemary leaves grown from Rosmarinus officinalis extracted with either acetone and TFE or ethanol. Mixed Tocopherols (Fortium® MT): Mixed tocopherols are extracted from vegetable oils with hexane, ethanol, and methanol. Lipid-Soluble Green Tea (GT-FORT): Tea leaves grown from Camellia sinensis and extracted with ethyl acetate, dichloromethane, and ethanol. Synthetic antioxidants: TBHQ (tert-butylhydroquinone) and BHT (butylated hydroxytoluene); tert-butlyhydroquinone was solubilized in propylene glycol and butylated hydroxytoluene was solubilized in ethanol. In alternative embodiments, the synthetic antioxidants are suspended in liquid or solubilized in liquid, including but not limited to water and organic solvents or combinations thereof.
# Dry yeast was added to corn mash containing urea, protease, phytase, and glucoamylase. tert-Butylhydroquinone (0.0001, 0.001, or 0.01 mg/L) and butylated hydroxytoluene (0.0001, 0.001, or 0.01 mg/L were added to the corn mash. Corn mash containing no antioxidants was included in the experiment as a Control. The corn mash was fermented in a temperature-controlled incubator shaker for 24 hours at 33° C. Following 24 hours, the yeast in the corn mash were subjected to heat stress by increasing the temperature to 37° C. and the corn mash fermented for another 48 hours for a total fermentation time of 72 hours. Ethanol levels were measured by HPLC.
# [2] = system: yeast; test: Corn mash fermentation, 48 hours, heat stress at 38° C. after 24 hours, ethanol by HPLC (Example 1); format: cell-based; settings: 48 hours total, heat stress 38° C. for last 24 hours
# From the text: as §1
# Dry yeast was added to corn mash containing urea, protease, phytase, and glucoamylase. Lutein, a fat-soluble antioxidant, was added to the mash at 200, 1,000, or 2,000 mg/L. Dried aqueous tea extract or spearmint extract containing antioxidants were added to the corn mash at 100, 1,000, or 5,000 mg/L. Corn mash containing no added antioxidants was included in the experiment as a control group (Control). The corn mash was fermented in a temperature-controlled incubator shaker for 24 hours at 33° C. Following 24 hours, the yeast in the corn mash were subjected to heat stress by increasing the temperature to 38° C. and the corn mash fermented for another 24 hours for a total fermentation time of 48 hours. Ethanol levels were measured by HPLC.
compound,measurement,setting,value
Cc1cc(C(C)(C)C)c(O)c(C(C)(C)C)c1 [butylated hydroxytoluene],change of ethanol content of corn mash through 72 hours compared to control,"[1]; 72 hours, following heat stress 37° C., 0.0001, 0.001 or 0.01 mg/L",slightly decreased
"CC1=C[C@H](O)CC(C)(C)[C@H]1/C=C/C(C)=C/C=C/C(C)=C/C=C/C=C(C)/C=C/C=C(C)/C=C/C1=C(C)C[C@@H](O)CC1(C)C [lutein, Lutein]",increase in ethanol content of corn mash compared to Control,[2]; 200 mg/L,4%
same,increase in ethanol content of corn mash compared to Control,"[2]; 1,000 mg/L",7%
same,increase in ethanol content of corn mash compared to Control,"[2]; 2,000 mg/L",10%
"CC(C)(C)c1cc(O)ccc1O [tert-Butylhydroquinone, tert-butylhydroquinone]",increase in ethanol content at 24 hour compared to control,"[1]; 0.0001 mg/L, first 24 hours at 33° C.",up to 0.4%
same,increase in ethanol content at 24 hour compared to control,"[1]; 0.01 mg/L, first 24 hours at 33° C.",up to 1.8%
same,increase in ethanol content at 72 hour compared to control,"[1]; 72 hours, following heat stress 37° C., highest increase among 0.0001, 0.001 or 0.01 mg/L",≤ 2.8%
same,change of ethanol content of corn mash over the first 24 hours compared to control,"[1]; first 24 hours at 33° C., FIG. 17, 0.0001, 0.001 or 0.01 mg/L",decreased
